# Data taken from ChEMBL document CHEMBL3124913, “Sinugyrosanolide A, an unprecedented C-4 norcembranoid, from the Formosan soft coral Sinularia gyrosa” (Bioorg Med Chem Lett, 2014).
# Activity calls are given as the source filed them. No cut-off for these calls is given here.
# Key:
# Shigella sonnei = assay: Antibacterial activity against Shigella sonnei ATCC 11060 at 100 ug/ml after 24 hrs; format: functional, organism-based
# Human betaherpesvirus 5 [1] = assay: Antiviral activity against Human cytomegalovirus infected in Human HEL cells assessed as virus-induced cytopathic effect treated 1 hr prior to infection measured after 7 days; format: functional, organism-based; conditions: Human betaherpesvirus 5, HEL
# Yersinia enterocolitica = assay: Antibacterial activity against Yersinia enterocolitica ATCC 23715 at 100 ug/ml after 24 hrs; format: functional, organism-based
# Klebsiella aerogenes = assay: Antibacterial activity against Enterobacter aerogenes ATCC 13048 at 100 ug/ml after 24 hrs; format: functional, organism-based
# Salmonella enteritidis = assay: Antibacterial activity against Salmonella enteritidis ATCC 13076 at 100 ug/ml after 24 hrs; format: functional, organism-based; conditions: Salmonella enterica subsp. enterica serovar Enteritidis
# Human betaherpesvirus 5 [2] = assay: Antiviral activity against Human cytomegalovirus infected in Human HEL cells assessed as virus-induced cytopathic effect at 1 ug/ml treated 1 hr prior to infection measured after 7 days; format: functional, organism-based
# Serratia marcescens = assay: Antibacterial activity against Serratia marcescens ATCC 25419 at 100 ug/ml after 24 hrs; format: functional, organism-based
# HT-29 = assay: Cytotoxicity against human HT-29 cells by MTT assay; format: functional, cell-based
# P388 = assay: Cytotoxicity against mouse P388 cells by MTT assay; format: functional, cell-based
# A549 = assay: Cytotoxicity against human A549 cells by MTT assay; format: functional, cell-based
SMILES,Activity (Shigella sonnei),EC50 (Human betaherpesvirus 5 [1]) [mg/L],Activity (Yersinia enterocolitica),Activity (Klebsiella aerogenes),Activity (Salmonella enteritidis),Activity (Human betaherpesvirus 5 [2]),Activity (Serratia marcescens),EC50 (HT-29) [µM],EC50 (P388) [µM],EC50 (A549) [µM]
C=C(C)[C@@H]1CC(=O)C[C@H]2C(=O)[C@@H]3[C@@H]4C(=C[C@@H]12)C(=O)O[C@@H]4C[C@]3(C)O,inactive,> 50,inactive,inactive,inactive,inactive,inactive,> 20,11.8,> 20
CO[C@H](C(=O)[C@@H](O)[C@@H](C)O)[C@@H]1Cc2cc3cc(O[C@H]4C[C@@H](O[C@@H]5C[C@@H](O)[C@H](O)[C@@H](C)O5)[C@H](O)[C@@H](C)O4)c(C)c(O)c3c(O)c2C(=O)[C@H]1O[C@H]1C[C@@H](O[C@@H]2C[C@@H](O)[C@@H](O[C@@H]3C[C@](C)(O)[C@H](O)[C@@H](C)O3)[C@@H](C)O2)[C@H](O)[C@@H](C)O1 [PLICAMYCIN],–,–,–,–,–,–,–,0.07,0.05,0.06
